Data published in publication PMC8280143, “A novel dephosphorylation targeting chimera selectively promoting tau removal in tauopathies” (Signal Transduction and Targeted Therapy, 2021).
Entries after “also recorded” stand apart in the source; their conditions may differ.

Tests used:
PP2A-Bα (PPP2R1A) = assay: Fluorescence polarization competing assay, PP2A-Bα; format: binding, human; details: 2.5 μM PP2A-Bα, 0.1 μM FITC-labeled DEPTAC; 37 °C, 30 min
Description: Purified human tau and PP2A-Bα (PPP2R1A) were obtained from AtaGenix (Wuhan, China), and concentrated using ultrafiltration tubes (Beyotime). In basic binding assays, tau or PP2A-Bα was aliquoted into serial dilutions with a buffer containing 20 mM Tris-HCl, 150 mM NaCl, and 0.5 mM 1,4-Dithiothreitol (pH 7.4), and incubated with 0.1 μM FITC-labeled DEPTAC, FITC-labeled control peptide and FITC (9:1 vol/vol), respectively, in a black 384-well plates (Corning) under 37 °C for 30 min. In competition binding assays, a mixture of 2.5 μM tau or PP2A-Bα and 0.1 μM FITC-labeled DEPTAC were incubated with increasing amounts of unlabeled-DEPTAC under 37 °C for 30 min. Fluorescence intensity was measured by a Biotek Synergy 2 microplate reader with the wavelengths of 480 nm (60) (Ex)/560 nm (40) (Em). The polarization measurements were corrected for background contributions to the measured intensity by subtracting the parallel and perpendicular intensity readings by the vehicle-only wells from the intensity readings for each data point. Fluorescence polarization (P) was calculated by the formula P = (I║ − I┴) / (I║ + I┴), where I║ was the intensity of emitted light polarized parallel to the excitation light, and I┴ was the intensity of emitted light polarized perpendicular to the excitation light.

MAP2 = MAP2 level in primary neurons; format: cell-based
Description: Cultured cells or hippocampus tissues were collected on ice, and homogenized with RIPA lysis buffer containing 50 mM Tris-HCl, 100 mM NaCl, 1% Triton X-100, 5 mM EDTA, and 1:100 PMSF, and then centrifuged at 12,000 × g for 20 min. The supernatant was collected for the analysis of soluble proteins. In some experiments, the pellets were further incubated with 8% SDS buffer at 37 °C and then ultrasound for 60 times to reach a complete resuspension for the analysis of insoluble tau. Protein concentration was measured through BCA assays (Thermo Fisher). Equal amount of protein from each sample were separated in SDS-PAGE gels, and then transferred onto nitrocellulose or 0.22 μm polyvinylidene fluoride membranes (Merck Millipore). […] Blots were visualized using ECL luminol reagent (P0018FS, Beyotime), and quantified using ImageJ software.

HEK293(hTau) cells = assay: CCK8 cell viability assay; format: cell-based, human; details: to 200 μM, 24 h; normalized to 0-μM group; F(4, 25) = 1.47, P = 0.24
Description: HEK293 cells with stable expression of wild-type full-length human tau (term as HEK293(hTau) cells), were cultured in DMEM (Hyclone, SH30022.01) containing 10% fetal bovine serum (Biological Industries, 04–001-1ACS) and […] G418 (Thermo Fisher Scientific, 10,131,027) under 5% CO2, 37 °C.
HEK293(hTau) cells were administrated with increasing concentration of DEPTAC for 24 h. About 5000 cells were dispensed into each well of a 96-well plate pre-incubated in a humidified incubator under 37 °C, 5% CO2. A total volume of 10 μL CCK-8 solution was delivered into each well of the plate. The plate was incubated for 1–4 h, and the light absorbance was measured at 450 nm using a microplate reader (BioTek-Synergy2). Cell viability (V) was evaluated by the formula: V = (Ad – A0) / (Av – A0) × 100%, where Ad and Av was the absorbance of DEPTAC-treated and vehicle-treated cells, respectively. A0 was the absorbance of wells with only culture medium and CCK8.

[1] = test system: human tau N-terminal 1–368 fragment (hTau-N368); assay: Hippocampal phosphorylated and total tau in dox-treated Tau368 mice; format: in vivo, mouse; details: 5 mM, i.c.v.
tau = assay: Tau Ser/Thr phosphorylation and ubiquitination in the presence of MG132; format: cell-based, rat
Description: Primary hippocampal neurons were prepared from E12–E15 days SD rat embryos. Briefly, pregnant rats were acutely executed, hippocampus was dissected on ice and gently minced in DME/F12 (Hyclone) then suspended in 0.125% (vol/vol) trypsin solution at 37 °C for 20 min. Enzymatic activity was stopped by fetal bovine serum. Neurons were initially kept in 10% FBS-containing DME/F12 for 4–6 h, and subsequently cultured in Neurobasal (Hyclone) with 2% B27, 1% glutamax and 1% penicillin–streptomycin (Thermo Fisher Scientific) in dishes pre-coated with 100 μg/mL poly-D-lysine. Serum was gradually removed by replacing half of the medium for each time within the following 2 days. […]
Cultured cells or hippocampus tissues were collected on ice, and homogenized with RIPA lysis buffer containing 50 mM Tris-HCl, 100 mM NaCl, 1% Triton X-100, 5 mM EDTA, and 1:100 PMSF, and then centrifuged at 12,000 × g for 20 min. […] Protein concentration was measured through BCA assays (Thermo Fisher). […] Blots were visualized using ECL luminol reagent (P0018FS, Beyotime), and quantified using ImageJ software.
For co-immunoprecipitation, cultured cells were lysed on ice with RIPA buffer for 10 min containing 1:100 PMSF. […] Immunoprecipitants were subsequently analyzed through Western blotting.

tau and PP2A-B = assay: Co-immunoprecipitation of DEPTAC with tau and PP2A-B in primary neurons; format: cell-based; details: primary cultured rat neurons
Description: Primary hippocampal neurons were prepared from E12–E15 days SD rat embryos. Briefly, pregnant rats were acutely executed, hippocampus was dissected on ice and gently minced in DME/F12 (Hyclone) then suspended in 0.125% (vol/vol) trypsin solution at 37 °C for 20 min. Enzymatic activity was stopped by fetal bovine serum. Neurons were initially kept in 10% FBS-containing DME/F12 for 4–6 h, and subsequently cultured in Neurobasal (Hyclone) with 2% B27, 1% glutamax and 1% penicillin–streptomycin (Thermo Fisher Scientific) in dishes pre-coated with 100 μg/mL poly-D-lysine. Serum was gradually removed by replacing half of the medium for each time within the following 2 days. Especially, to inhibit the proteasome-dependent proteolysis, the cultured hippocampal neurons were treated with 5 μM MG132 for 5 h before harvest.
For co-immunoprecipitation, cultured cells were lysed on ice with RIPA buffer for 10 min containing 1:100 PMSF. Protein samples were incubated with protein G agarose (Beyotime) at 4 °C for 2 h, and then centrifuged for 5 min (4 °C, 12,000 rpm). Supernatants were subsequently incubated with specified antibodies and protein G agarose overnight at 4 °C. […] Immunoprecipitants were subsequently analyzed through Western blotting.

(1) YQQYQDATADEQG, originates from the porcine β-tubulin 422–434 for recognizing and binding tau proteins.[5],[6] (2) GSGS, a linker for increasing the flexibility of the peptide.[15] (3) KKVAVVRTPPKSP, for recruiting PP2A-Bα,[16] and (4) RRRRRRRR [DEPTAC, DEPhosphorylation TArgeting Chimera; 38 amino acid residues, C185H314N72O56]
reversal of FITC-DEPTAC/PP2A-Bα polarization by increased amount of unlabeled-DEPTAC (PP2A-Bα (PPP2R1A)): both were reversed | level of MAP2 (MAP2; Supplementary Fig. S3, specificity to tau): did not change | selectivity to tau proteins (MAP2; discussion): considerable selectivity to tau proteins | cytotoxicity (CCK8) (HEK293(hTau) cells): No cytotoxicity | time post injection of tau reduction [1]: 12 to 72 h | hippocampal total tau ([1]; for a consecutive month / for once, 12–72 h post injection, n = 3–4): effective in reducing; also recorded: reduced phosphorylated and total tau prominently | tau phosphorylation at Ser/Thr residues (tau): downregulation; also recorded: decreased | tau ubiquitination (tau): upregulation; also recorded: upregulated | total tau level over time (tau and PP2A-B; 6–24 h of post-DEPTAC treatment): time-dependent decrease; also recorded: gradual decrease | co-immunoprecipitation of DEPTAC with tau and PP2A-B (tau and PP2A-B; DEPTAC antibody, 24 h / 12 h (b9)): detected; also recorded: confirmed
